US20200129492A1, “TREATMENT OF CANCER WITH DIHYDROPYRIDINES” (MENRI GROUP LTD., priority 2017, published 2020)
pIC50: −log10 of the molar value. Like-named read-outs stand apart in the source and are kept apart here.

Experiments:
Assay type in all cases: cell-based
[1] = tested on: NSCLC A549 lung cancer cells; assay: XTT assay, cell proliferation after 72 hours incubation, IC50
Description: (§1) Example 10 (see also FIG. 10) is a study to determine the effect of the combination of calcium blockers on the proliferation of cancer cells. NSCLC A549 lung cancer cells were incubated with various concentrations of a combination of calcium blockers ranging from 1 μM to 50 μM. […] An XTT assay was then performed. The cell proliferation was then calculated. Results are representative of at least three independent experiments. IC50 was calculated from the % inhibition data.

A549 lung cancer cells [2] = assay: Intracellular free calcium, Fura-2-AM fluorescence measurement
Description: The intracellular free calcium measurement was done using Fura-2-AM fluorescence measurement. […] Ionomycin was used as the positive control for stimulation of calcium entry. Calcium was removed from the medium at the end of each experiment via addition of EGTA or replacement of the medium with calcium free medium. The calculation of the absolute calcium concentration was performed using a standard calcium curve. An average of 15 cells is shown.
The intracellular free calcium measurement was done using Fura-2-AM fluorescence measurement. […] The calculation of the absolute calcium concentration was performed using a standard calcium curve. An average of 15 cells is shown.
The intracellular free calcium measurement was done using Fura-2-AM fluorescence measurement. […] Ionomycin was used as the positive control for stimulation of calcium entry.

A549 lung cancer cells [3] = assay: XTT assay, cell proliferation 48 hours after addition; conditions: increasing concentrations
Description: An XTT assay was performed 48 hours after the addition of nitrendipine at increasing concentrations. The cell proliferation was then calculated. Results are representative of at least three independent experiments. The results are illustrated in FIG. 1B. […] Without limitation by theory, it is theorized that nitrendipine lethally flooded the cells with calcium at the noted concentrations.
(§2) An XTT assay was performed 48 hours after the addition of nicardipine at increasing concentrations. The cell proliferation was then calculated. Results are representative of at least three independent experiments. The results are illustrated in FIG. 2B. […] Without limitation by theory, it is theorized that the nicardipine-initiated block of the entry of extracellular free calcium inhibits the cell's ability to undergo or successfully finish cytokinesis, and this may lead to cell death.
as §2, with “nisoldipine” for “nicardipine”, “4B.” for “2B.”, “nisoldipine-initiated” for “nicardipine-initiated”, “cytokinesis” for “cytokinesis,”
as §2, with “The” for “An XTT assay was performed 48 hours after the addition of nicardipine at increasing concentrations. The”, “7B.” for “2B.”, “loperamide-initiated” for “nicardipine-initiated”

[4] = tested on: NSCLC A549 lung cancer cells; assay: XTT assay, cell proliferation after 24 hours incubation
Description: Example 6 was a study to determine the effect of treatment with nitrendipine and the dihydropyridine of Formula IV above on the proliferation of cancer cells. NSCLC A549 lung cancer cells were incubated with various concentrations of nitrendipine and the dihydropyridine of Formula IV ranging from 1 μM to 100 μM. 5000 cells were plated in RPMI medium per well and incubated with either the individual drugs for 24 hours. An XTT assay was then performed. The cell proliferation was then calculated. FIG. 6 is a graphical representation of the results.
as §1, with “8 was” for “10 (see also FIG. 10) is”, “μM. In this specific example, the combination of loperamide and the dihydropyridine, nitrendipine, was used.” for “μM.”, “FIG. 8 is a graphical representation of” for “IC50 was calculated from”, “results.” for “% inhibition data.”
as §1, with “9” for “10 (see also FIG. 10)”, “μM. In this specific example, the combination of loperamide and the dihydropyridine, nicardipine, was used.” for “μM.”, “FIG. 9 is a graphical representation of” for “IC50 was calculated from”, “results.” for “% inhibition data.”

[5] = Homo sapiens, A549, compound alone plus DMSO, 72 hours, read-out: Plus DMSO (Control), IC-50
[6] = read-out: Plus Loperamide, IC-50, in combination with loperamide (5 uM per FIG. 10), 72 hours
[7] = compound alone plus DMSO, 72 hours

**Q.** How did the pIC50 [1, 5] turn out when `COC(=O)C1=C(C)NC(C)=C(C(=O)OC(C)(C)CN(C)CCC(c2ccccc2)c2ccccc2)C1c1cccc([N+](=O)[O-])c1` (racemic) [Lercanidipine] was run?
**A.** 5.11

**Q.** What about the pIC50 [1, 6] of the same compound?
**A.** 5.40

**Q.** Which “effect on intracellular free calcium” value (A549 lung cancer cells [2]; 1 μM and 5 μM treatments) does the source give for `CCOC(=O)C1=C(C)NC(C)=C(C(=O)OC)C1c1cccc([N+](=O)[O-])c1` (racemic) [Nitrendipine, (RS)-3-Ethyl 5-methyl 2,6-dimethyl-4-(m-nitrophenyl)-1,4-dihydropyridine-3,5-dicarboxylate] here?
**A.** functions as an agonist for the entry of extracellular calcium

**Q.** What about the “concentration of intracellular calcium versus positive control (ionomycin)” value (A549 lung cancer cells [2]; 5 μM treatment) of the same compound?
**A.** greater than that of the positive control

**Q.** What about the “effect on intracellular free calcium” value (A549 lung cancer cells [2]; consecutive treatments with nitrendipine and nicardipine, 20 μM each) of the same compound?
**A.** floods the cells with calcium

**Q.** And the “percentage of cell growth” value (A549 lung cancer cells [3])?
**A.** decreases as the concentration of nitrendipine is increased

**Q.** And the Avg. % proliferation ([4]; Example 6, 1 μM)?
**A.** 86.24%

**Q.** And the Avg. % proliferation ([4]; Example 6, 5 μM)?
**A.** 87.19%

**Q.** What about the Avg. % proliferation ([4]; Example 6, 10 μM) of the same compound?
**A.** 75.97%

**Q.** What about the Avg. % proliferation ([4]; Example 6, 50 μM) of the same compound?
**A.** 52.21%

**Q.** What about the Avg. % proliferation ([4]; Example 6, 100 μM) of the same compound?
**A.** 24.42%

**Q.** What about the Avg. % proliferation ([4]; Example 8, 1 μM) of the same compound?
**A.** 102.33%

**Q.** And the Avg. % proliferation ([4]; Example 8, 5 μM)?
**A.** 93.35%

**Q.** And the Avg. % proliferation ([4]; Example 8, 10 μM)?
**A.** 102.58%

**Q.** And the Avg. % proliferation ([4]; Example 8, 50 μM)?
**A.** 71.43%

**Q.** `CCOC(=O)C1=C(COCCN)NC(C)=C(C(=O)OC)C1c1ccccc1Cl` (centres unmarked) [Amlodipine] was tested. Which pIC50 [1, 5] did it give?
**A.** 4.66

**Q.** `CC1=C(C(=O)OC(C)C)C(c2cccc([N+](=O)[O-])c2)C(C(=O)OC2CN(C(c3ccccc3)c3ccccc3)C2)=C(N)N1` (centres unmarked) [Azelnidipine] was tested. Which pIC50 [1, 5] did it give?
**A.** 5.07

**Q.** And the pIC50 [1, 6]?
**A.** 5.32

**Q.** How did the pIC50 [1, 5] turn out when `COC(=O)C1=C(C)NC(C)=C(C(=O)OC2CCCN(Cc3ccccc3)C2)C1c1cccc([N+](=O)[O-])c1` (centres unmarked) [Benidipine] was run?
**A.** 4.74

**Q.** How did the pIC50 [1, 5] turn out when `CCCC(=O)OCOC(=O)C1=C(C)NC(C)=C(C(=O)OC)C1c1cccc(Cl)c1Cl` (centres unmarked) [Clevidipine] was run?
**A.** 4.64

**Q.** `COCCOC(=O)C1=C(C)NC(C)=C(C(=O)OC/C=C/c2ccccc2)C1c1cccc([N+](=O)[O-])c1` (centres unmarked) [Clinidipine] was tested. Which pIC50 ([1]; read-out: Plus DMSO (Control), IC-50) did it give?
**A.** 4.39

**Q.** For `COc1ccc([C@@H]2Sc3ccccc3N(CCN(C)C)C(=O)[C@@H]2OC(C)=O)cc1` [Diltiazem], which “Plus DMSO (Control), IC-50” value [1, 7] is on record?
**A.** No Activity

**Q.** With `CC1=C(C(=O)OCCN(Cc2ccccc2)c2ccccc2)C(c2cccc([N+](=O)[O-])c2)C(P2(=O)OCC(C)(C)CO2)=C(C)N1` (centres unmarked) [Efonidipine] as the compound, how does the pIC50 [1, 5] read?
**A.** 4.99

**Q.** How did the pIC50 [1, 5] turn out when `CCOC(=O)C1=C(C)NC(C)=C(C(=O)OC)C1c1cccc(Cl)c1Cl` (centres unmarked) [Felodipine] was run?
**A.** 4.59

**Q.** `CCOC(=O)C1=C(C)NC(C)=C(C(=O)OC)C1c1ccccc1` (centres unmarked) [Formula IV, 5-O-ethyl 3-O-methyl 2,6-dimethyl-4-phenyl-1,4-dihydropyridine-3,5-dicarboxylate] was tested. Which “effect on intracellular free calcium” value (A549 lung cancer cells [2]; 5 μM and 50 μM treatments) did it give?
**A.** blocks the influx of extracellular calcium

**Q.** What about the Avg. % proliferation ([4]; Example 6, 5 μM) of the same compound?
**A.** 96.4%

**Q.** What about the Avg. % proliferation ([4]; Example 6, 10 μM) of the same compound?
**A.** 104.2%

**Q.** What about the Avg. % proliferation ([4]; Example 6, 50 μM) of the same compound?
**A.** 79.06%

**Q.** And the Avg. % proliferation ([4]; Example 6, 100 μM)?
**A.** 67.8%

**Q.** With `COC(=O)C1=C(C)NC(C)=C(C(=O)OC(C)C)C1c1cccc2nonc12` (centres unmarked) [Isradipine] as the compound, how does the pIC50 [1, 5] read?
**A.** 4.59

**Q.** With `CCOC(=O)C1=C(C)NC(C)=C(C(=O)OCC)C1c1ccccc1/C=C/C(=O)OC(C)(C)C` [Lacidipine] as the compound, how does the pIC50 [1, 5] read?
**A.** 4.80

**Q.** Which results are given for `CN(C)C(=O)C(CCN1CCC(O)(c2ccc(Cl)cc2)CC1)(c1ccccc1)c1ccccc1` [Loperamide, 4-[4-(4-Chlorophenyl)-4-hydroxypiperidin-1-yl]-N,N-dimethyl-2,2-diphenylbutanamide]?
**A.** effect on intracellular free calcium (A549 lung cancer cells [2]; 5 μM and 50 μM treatments): blocks the influx of extracellular calcium; percentage of cell growth (A549 lung cancer cells [3]): decreases as the concentration of loperamide is increased; Avg. % proliferation ([4]; Example 8, 1 μM): 98.07%; Avg. % proliferation ([4]; Example 8, 5 μM): 99.77%; Avg. % proliferation ([4]; Example 8, 10 μM): 96.09%; Avg. % proliferation ([4]; Example 8, 50 μM): 34.04%; Avg. % proliferation ([4]; Example 9, 1 μM): 92.73%; Avg. % proliferation ([4]; Example 9, 5 μM): 86.97%; Avg. % proliferation ([4]; Example 9, 10 μM): 90.33%; Avg. % proliferation ([4]; Example 9, 50 μM): 32.03%

**Q.** How did the pIC50 [1, 5] turn out when `COC(=O)C1=C(C)NC(C)=C(C(=O)OCCN2CCN(C(c3ccccc3)c3ccccc3)CC2)C1c1cccc([N+](=O)[O-])c1` (centres unmarked) [Manidipine] was run?
**A.** 5.09

**Q.** Which Avg. % proliferation ([4]; Example 9, 1 μM) does the source give for `COC(=O)C1=C(C)NC(C)=C(C(=O)OCCN(C)Cc2ccccc2)C1c1cccc([N+](=O)[O-])c1` (centres unmarked) [Nicardipine, 2-[benzyl(methyl)amino]ethylmethyl-2,6-dimethyl-4-(3-nitrophenyl)-1,4-dihydropyridine-3,5-dicarboxylate] here?
**A.** 99.90%

**Q.** And the Avg. % proliferation ([4]; Example 9, 5 μM)?
**A.** 100.23%

**Q.** What about the Avg. % proliferation ([4]; Example 9, 10 μM) of the same compound?
**A.** 86.20%

**Q.** What about the Avg. % proliferation ([4]; Example 9, 50 μM) of the same compound?
**A.** 32.97%

**Q.** And the pIC50 [1, 5]?
**A.** 4.86

**Q.** And the pIC50 [1, 6]?
**A.** 5.17

**Q.** `COC(=O)C1=C(C)NC(C)=C(C(=O)OC)C1c1ccccc1[N+](=O)[O-]` [Nifedipine] was tested. Which “Plus DMSO (Control), IC-50” value [1, 7] did it give?
**A.** No Activity

**Q.** What does the source list for `COC(=O)C1=C(C)NC(C)=C(C(=O)OCCCN2CCC(c3ccccc3)(c3ccccc3)CC2)[C@H]1c1cccc([N+](=O)[O-])c1` [Niguldipine]?
**A.** pIC50 ([1]; Homo sapiens, A549, 72 h, read-out: Plus DMSO (Control), IC-50): 5.27; pIC50 ([1]; read-out: Plus Loperamide, IC-50): 5.51

**Q.** `COC(=O)C1=C(C#N)NC(C)=C(C(=O)OC(C)C)C1c1cccc([N+](=O)[O-])c1` (centres unmarked) [Nilvadipine] was tested. Which pIC50 [1, 5] did it give?
**A.** 4.75

**Q.** How did the “Plus DMSO (Control), IC-50” value [1, 7] turn out when `COCCOC(=O)C1=C(C)NC(C)=C(C(=O)OC(C)C)C1c1cccc([N+](=O)[O-])c1` (centres unmarked) [Nimodipine] was run?
**A.** No Activity

**Q.** How did the “Plus DMSO (Control), IC-50” value [1] turn out when `COc1ccc(CCN(C)CCCC(C#N)(c2ccc(OC)c(OC)c2)C(C)C)cc1OC` (centres unmarked) [Verapamil] was run?
**A.** No Activity

**Q.** Which “effect on intracellular free calcium” value (A549 lung cancer cells [2]; 5 μM and 10 μM treatments) does the source give for `COC(=O)C1=C(C)NC(C)=C(C(=O)OCC(C)C)C1c1ccccc1[N+](=O)[O-]` (centres unmarked) [nisoldipine, isobutyl methyl 2,6-dimethyl4-(2-nitrophenyl)-1,4-dihydropyridine-3,5-dicarboxylate] here?
**A.** blocks the influx of extracellular calcium

**Q.** What about the “percentage of cell growth” value (A549 lung cancer cells [3]) of the same compound?
**A.** decreases as the concentration of nisoldipine is increased
